Laboratory results taken from US8853235B2, “Polymorphs and salts of a kinase inhibitor” (Senhwa Biosciences, Inc., priority 2009, dated 2014).
Several values for one entry are separate records, joined by “and”; a condition that tells them apart may be missing. Equal values may be shown once. One block for each compound: values may come before it.

Columns and labels:
Format in all cases: physicochemical
[1] = Water solubility of compound (I) acid and its salts; conditions: qualitative, acid form vs salts
[2] = Intrinsic solubility / dissolution rate of salts and polymorphs (FIGS. 82-83); conditions: qualitative; for ease of dissolution: FIGS. 82-83
[3] = Solubility in organic solvents, sodium salt vs free acid (FIG. 81); conditions: compared with the acid
[4] = Storage, drying and light stability of sodium salt forms, by XRPD; conditions: for physical change in light study by XRPD: 5 day light studies; for time in which material reverts to Form II: 5 day stability study, 40° C./75% RH; for physical change on storage by XRPD: about 80° C. over about 5 days
[5] = Gravimetric Vapor Sorption (GVS) of sodium salt polymorphs; conditions: for XRPD analysis of the post-GVS experiment sample: after GVS; for hydroscopicity by GVS: qualitative; for GVS desorption: sample retains water until: mass drops significantly there
[6] = Micronization of Arginine and TRIS salts, physical form check; conditions: micronized vs pre-micronized
Excerpt: Both Arginine and TRIS salt forms of compound I prepared as described above were micronized at Pharmaterials in preparation for PK studies. Particle size reduction was done using a Sturtevant Qualification Micronizer® (Sturtevant Inc. Hanover Mass., USA) with dry nitrogen gas as feed and grind gas. To avoid clogging of the venturi and feed nozzle, the polymorph was initially ground using a pestle and motor to break down large particles. Grinding was done at room temperature using the following settings: • Feed air pressure: 80 psi • Grind air pressure: 100 psi
The micronized polymorph was collected from the exhaust bag and put in a glass vial pending further analysis. The material was then analyzed for particle size distribution based on a method established and applied to each batch. […] The samples were also analyzed by HPLC to determine chemical purity.

[7] = Short term accelerated stability study of Arginine and TRIS salts; conditions: 40° C./75% RH; for change by XRPD and DSC: 4 week period; for HPLC impurity after storage: after 4 weeks
Experimental: Arginine and TRIS salts of compound I prepared as described above were stored at 40° C./75% RH. Each sample was assessed at 0,1 week, 2 weeks and 4 weeks by XRPD, DSC and HPLC assess the stability of each salt.

[8] = Slurry of Arginine and TRIS salts to determine stability (competitive slurry); conditions: for relative stability of the two forms: competitive slurry, MeOH/H2O (90:10) and EtOH/H2O (90:10); for form after slurry by XRPD: MeOH/H2O (90:10), temperature cycling 40° C. and RT, 4 hour periods, 5 days
Excerpt: Both Arginine and TRIS salt forms of compound I prepared as described above were slurried in 2˜4 different solvents including aqueous mixes to further determine the stability of the new salt forms. The solids were then dried and analyzed by XRPD and Raman to check for changes in physical and/or chemical form.

[9] = Determination of particle size distribution (Malvern Mastersizer); conditions: for d50, 3 times / d90, 3 times: single measurements
Experimental: Particle size analysis of the pre-milled and post-milled TRIS and arginine salts was carried out using the Malvern Mastersizer, Model Micro Plus. Backgrounds were first measured using the appropriate vehicle solution as diluent (Dimethyl Siloxane). The samples were added drop-wise until a suitable obscuration value was achieved, and particle size distribution measured. A minimum of three analyses were made for each sample.

SMILES: O=C(O)c1ccc2c(c1)nc(Nc1cccc(Cl)c1)c1ccncc12 [Compound I, 5-(3-chlorophenylamino)benzo[c][2,6]naphthyridine-8-carboxylic acid]
water solubility [1]: very low

SMILES: O=C(O)c1ccc2c(c1)nc(Nc1cccc(Cl)c1)c1ccncc12 [Form I, 5-(3-chlorophenylamino)benzo[c][2,6]naphthyridine-8-carboxylic acid]
solubility relative to other polymorphs [2]: significantly more soluble than other polymorphs
solubility in organic solvents [3]: more soluble in organic solvents than the acid
physical form on storage ([4]; dry conditions less than 30° C.): stay amorphous

SMILES: O=C(O)c1ccc2c(c1)nc(Nc1cccc(Cl)c1)c1ccncc12 [Form II, 5-(3-chlorophenylamino)benzo[c][2,6]naphthyridine-8-carboxylic acid]
solubility relative to other polymorphs [2]: significantly more soluble than other polymorphs
GVS uptake of water ([5]; 20-70% RH): about 12%
GVS weight gain ([5]; RH range of about 10% to about 70%): about 8%
form conversion in the GVS cycle ([5]; about 10% to about 90% RH, repeated): No further form conversion was observed
XRPD analysis of the post-GVS experiment sample [5]: amorphous content
hydroscopicity by GVS [5]: moderate
form after drying ([4]; 80° C. for about 24 hours and prolonged drying at 60° C.): converted to amorphous material

SMILES: O=C(O)c1ccc2c(c1)nc(Nc1cccc(Cl)c1)c1ccncc12 [Form III, 5-(3-chlorophenylamino)benzo[c][2,6]naphthyridine-8-carboxylic acid]
XRPD analysis of the post-GVS experiment sample [5]: amorphous content
GVS desorption: sample retains water until [5]: 5%
hydroscopicity by GVS [5]: hydroscopic
GVS water absorbed on sorption ([5]; sorption): 11%
physical change in light study by XRPD [4]: no physical change
time in which material reverts to Form II [4]: ≤ 24 h
physical change on storage by XRPD [4]: less crystalline appearance

SMILES: O=C(O)c1ccc2c(c1)nc(Nc1cccc(Cl)c1)c1ccncc12 [Form IV, 5-(3-chlorophenylamino)benzo[c][2,6]naphthyridine-8-carboxylic acid]
GVS uptake of water on sorption ([5]; about 20-60% RH): about 1%
GVS further rapid uptake ([5]; about 60-70% RH): approximately 8%
XRPD analysis of the post-GVS experiment sample [5]: amorphous content
GVS desorption: sample retains water until [5]: about 5%
physical change in light study by XRPD [4]: no physical change
time in which material reverts to Form II [4]: ≤ 24 h
physical change on storage by XRPD [4]: no physical change
form after drying ([4]; drying at 50° C.): converts to another crystalline polymorph

SMILES: O=C(O)c1ccc2c(c1)nc(Nc1cccc(Cl)c1)c1ccncc12 [Form VII, 5-(3-chlorophenylamino)benzo[c][2,6]naphthyridine-8-carboxylic acid]
stability by XRPD ([4]; ambient conditions and 40° C./75% relative humidity, seven days): stable

SMILES: O=C(O)c1ccc2c(c1)nc(Nc1cccc(Cl)c1)c1ccncc12 [Form XXI, 5-(3-chlorophenylamino)benzo[c][2,6]naphthyridine-8-carboxylic acid]
ease of dissolution [2]: particularly easily dissolved
DSC change after micronization [6]: no significant change
XRPD change after micronization [6]: no significant change in crystalline structure
change by XRPD and DSC [7]: no significant change
HPLC impurity after storage [7]: no additional impurity
relative stability of the two forms [8]: more stable
d50, Average ([9]; micronized): 4.1 μm
d90, Average ([9]; micronized): 8.0 μm
d50, 3 times ([9]; micronized): 3.98 μm and 4.04 μm and 4.14 μm
d90, 3 times ([9]; micronized): 7.90 μm and 7.94 μm and 8.13 μm
d50, Average ([9]; pre-micronized): 21.6 μm
d90, Average ([9]; pre-micronized): 71.0 μm
d50, 3 times ([9]; pre-micronized): 19.97 μm and 21.13 μm and 23.60 μm
d90, 3 times ([9]; pre-micronized): 62.36 μm and 70.79 μm and 79.85 μm

The next lines start with results.

form after slurry by XRPD [8]: complete conversion to Form XXI
SMILES: O=C(O)c1ccc2c(c1)nc(Nc1cccc(Cl)c1)c1ccncc12 [Form XXI-B, 5-(3-chlorophenylamino)benzo[c][2,6]naphthyridine-8-carboxylic acid]

ease of dissolution [2]: particularly easily dissolved
DSC change after micronization [6]: no significant change
change by XRPD and DSC [7]: no significant change
HPLC impurity after storage [7]: no additional impurity
relative stability of the two forms [8]: more stable
d50, Average ([9]; micronized): 6.0 μm
d90, Average ([9]; micronized): 10.5 μm
d50, 3 times ([9]; micronized): 6.12 μm and 6.03 μm and 5.99 μm
d90, 3 times ([9]; micronized): 10.72 μm and 10.51 μm and 10.41 μm
d50, Average ([9]; pre-micronized): 10.0 μm
d90, Average ([9]; pre-micronized): 23.4 μm
d50, 3 times ([9]; pre-micronized): 9.97 μm and 9.98 μm and 10.06 μm
d90, 3 times ([9]; pre-micronized): 23.26 μm and 23.15 μm and 23.68 μm
SMILES: O=C(O)c1ccc2c(c1)nc(Nc1cccc(Cl)c1)c1ccncc12 [Form XXII, 5-(3-chlorophenylamino)benzo[c][2,6]naphthyridine-8-carboxylic acid]
XRPD change after micronization [6]: no significant change in crystalline structure

form after slurry by XRPD [8]: complete conversion to Form XXII
SMILES: O=C(O)c1ccc2c(c1)nc(Nc1cccc(Cl)c1)c1ccncc12 [Form XXII-B, 5-(3-chlorophenylamino)benzo[c][2,6]naphthyridine-8-carboxylic acid]
